The results in this text go back to ChEMBL document CHEMBL3217597, “OH radical production stimulated by (RW)4D, a synthetic antimicrobial agent and indolicidin” (Medchemcomm, 2012).

What is called IC50 is the concentration needed to halve the response being measured. Low values mean greater potency in that assay, high ones weaker potency in that assay.

Assay [1] deals with Escherichia coli. Put plainly: Induction of hydroxyl radical production in Escherichia coli at 9 to 45 ug/mL after 1 hr by measuring increase in hydroxyphenyl fluorescein emission by flow cytometry analysis in presence of thiourea. The assay is classed as functional, organism-based. (In flow cytometry, cells or beads pass a laser one at a time.)
Assay [2] deals with Escherichia coli. Briefly: Reduction of hydroxyl radical production in […] knockout Escherichia coli at 9 to 45 ug/mL after 1 hr by flow cytometry analysis. It is filed as functional, organism-based.
Assay [3] relates to Escherichia coli. Put plainly: Antibacterial activity against deltaiscS knockout Escherichia coli. The assay is classed as functional, organism-based.
The test system of assay [4] is Escherichia coli. Briefly: Ratio of IC50 for deltaacnB knockout Escherichia coli to IC50 for Escherichia coli […]. The assay is classed as functional.
The test system of assay [5] is Escherichia coli. Put plainly: Reduction of hydroxyl radical production in deltaacnB knockout Escherichia coli at 9 ug/ml after 1 hr by flow cytometry analysis. The assay is classed as functional, organism-based.
Assay [6] deals with Escherichia coli. Briefly: Antibacterial activity against deltaicdA knockout Escherichia coli. The assay is classed as functional, organism-based.
Assay [7] deals with Escherichia coli. Briefly: Reduction of hydroxyl radical production in deltamdh knockout Escherichia coli at 9 to 45 ug/mL after 1 hr by flow cytometry analysis. The assay is classed as functional, organism-based.
Assay [8] relates to Escherichia coli. Put plainly: Antibacterial activity against Escherichia coli […]. It is filed as functional, organism-based.
For assay [9], the system named is Escherichia coli. Put plainly: Ratio of IC50 for deltaicdA knockout Escherichia coli to IC50 for Escherichia coli […]. The assay is classed as functional.
For assay [10], the system named is Escherichia coli. Briefly: Reduction of hydroxyl radical production in deltaicdA knockout Escherichia coli at 9 to 45 ug/mL after 1 hr by flow cytometry analysis. The assay is classed as functional, organism-based.
Assay [11] concerns Escherichia coli. Put plainly: Antibacterial activity against deltaacnB knockout Escherichia coli. It is filed as functional, organism-based.
Assay [12] has as its system Escherichia coli. Put plainly: Induction of hydroxyl radical production in Escherichia coli at 9 to 45 ug/mL after 1 hr by measuring increase in hydroxyphenyl fluorescein emission by flow cytometry analysis. It is filed as functional, organism-based.
Assay [13] concerns Escherichia coli. Briefly: Antibacterial activity against deltamdh knockout Escherichia coli. It is filed as functional, organism-based.
For assay [14], the system named is Escherichia coli. Briefly: Antibacterial activity against […] knockout Escherichia coli. It is filed as functional, organism-based.
For assay [15], the system named is Escherichia coli. Briefly: Induction of hydroxyl radical production in deltaiscS knockout Escherichia coli at 9 to 45 ug/mL after 1 hr by measuring increase in hydroxyphenyl fluorescein emission by flow cytometry analysis. It is filed as functional, organism-based.
Assay [16] relates to Escherichia coli. Put plainly: Induction of hydroxyl radical production in Escherichia coli at 9 to 45 ug/mL after 2 hrs by measuring increase in hydroxyphenyl fluorescein emission by flow cytometry analysis. It is filed as functional, organism-based.
Assay [17] relates to Escherichia coli. Briefly: Ratio of IC50 for deltaiscS knockout Escherichia coli to IC50 for Escherichia coli […]. It is filed as functional.
In assay [18] the test system is Escherichia coli. Put plainly: Reduction of hydroxyl radical production in […] knockout Escherichia coli at 25 to 250 ng/ml after 1 hr by flow cytometry analysis. The assay is classed as functional, organism-based.
For assay [19], the system named is Escherichia coli. Put plainly: Induction of hydroxyl radical production in Escherichia coli at 25 to 250 ng/mL after 2 hrs by measuring increase in hydroxyphenyl fluorescein emission by flow cytometry analysis. It is filed as functional, organism-based.
For assay [20], the system named is Escherichia coli. Put plainly: Reduction of hydroxyl radical production in deltamdh knockout Escherichia coli at 25 to 250 ng/ml after 1 hr by flow cytometry analysis. The assay is classed as functional, organism-based.
Assay [21] relates to Escherichia coli. Briefly: Induction of hydroxyl radical production in Escherichia coli at 25 to 250 ng/mL after 1 hr by measuring increase in hydroxyphenyl fluorescein emission by flow cytometry analysis. The assay is classed as functional, organism-based.
In assay [22] the test system is Escherichia coli. Briefly: Reduction of hydroxyl radical production in deltaicdA knockout Escherichia coli at 25 to 250 ng/ml after 1 hr by flow cytometry analysis. It is filed as functional, organism-based.
For assay [23], the system named is Escherichia coli. Put plainly: Induction of hydroxyl radical production in Escherichia coli at 25 to 250 ng/mL after 1 hr by measuring increase in hydroxyphenyl fluorescein emission by flow cytometry analysis in presence of thiourea. It is filed as functional, organism-based.
In assay [24] the test system is Escherichia coli. Put plainly: Induction of hydroxyl radical production in deltaiscS knockout Escherichia coli at 25 to 250 ng/mL after 1 hr by measuring increase in hydroxyphenyl fluorescein emission by flow cytometry analysis. The assay is classed as functional, organism-based.
The test system of assay [25] is Escherichia coli. Put plainly: Reduction of hydroxyl radical production in deltaacnB knockout Escherichia coli at 25 to 250 ng/ml after 1 hr by flow cytometry analysis. The assay is classed as functional, organism-based.
Assay [26] has as its system Escherichia coli. Put plainly: Induction of hydroxyl radical production in Escherichia coli at 5 to 25 ug/mL after 1 hr by measuring increase in hydroxyphenyl fluorescein emission by flow cytometry analysis. The assay is classed as functional, organism-based.
Assay [27] relates to Escherichia coli. Put plainly: Induction of hydroxyl radical production in Escherichia coli at 5 to 25 ug/mL after 2 hrs by measuring increase in hydroxyphenyl fluorescein emission by flow cytometry analysis. The assay is classed as functional, organism-based.
Assay [28] deals with Escherichia coli. Briefly: Reduction of hydroxyl radical production in […] knockout Escherichia coli at 5 to 25 ug/ml after 1 hr by flow cytometry analysis. The assay is classed as functional, organism-based.
The subject of assay [29] is Escherichia coli. Briefly: Reduction of hydroxyl radical production in deltaacnB knockout Escherichia coli at 5 to 25 ug/ml after 1 hr by flow cytometry analysis. The assay is classed as functional, organism-based.
For assay [30], the system named is Escherichia coli. Briefly: Reduction of hydroxyl radical production in deltamdh knockout Escherichia coli at 5 to 25 ug/ml after 1 hr by flow cytometry analysis. It is filed as functional, organism-based.
Assay [31] concerns Escherichia coli. Briefly: Induction of hydroxyl radical production in deltaiscS knockout Escherichia coli at 5 to 25 ug/mL after 1 hr by measuring increase in hydroxyphenyl fluorescein emission by flow cytometry analysis. The assay is classed as functional, organism-based.
Assay [32] has as its system Escherichia coli. Briefly: Induction of hydroxyl radical production in Escherichia coli at 5 to 25 ug/mL after 1 hr by measuring increase in hydroxyphenyl fluorescein emission by flow cytometry analysis in presence of thiourea. The assay is classed as functional, organism-based.
Assay [33] has as its system Escherichia coli. Briefly: Reduction of hydroxyl radical production in deltaicdA knockout Escherichia coli at 5 to 25 ug/ml after 1 hr by flow cytometry analysis. The assay is classed as functional, organism-based.
The subject of assay [34] is Escherichia coli. Put plainly: Reduction of hydroxyl radical production in […] knockout Escherichia coli at 5 to 15 ug/ml after 1 hr by flow cytometry analysis. It is filed as functional, organism-based.
Assay [35] deals with Escherichia coli. Briefly: Reduction of hydroxyl radical production in deltaicdA knockout Escherichia coli at 5 to 15 ug/ml after 1 hr by flow cytometry analysis. It is filed as functional, organism-based.
Assay [36] concerns Escherichia coli. Put plainly: Induction of hydroxyl radical production in deltaiscS knockout Escherichia coli at 5 to 15 ug/mL after 1 hr by measuring increase in hydroxyphenyl fluorescein emission by flow cytometry analysis. The assay is classed as functional, organism-based.
Assay [37] deals with Escherichia coli. Briefly: Reduction of hydroxyl radical production in deltaacnB knockout Escherichia coli at 5 to 15 ug/ml after 1 hr by flow cytometry analysis. It is filed as functional, organism-based.
For assay [38], the system named is Escherichia coli. Briefly: Reduction of hydroxyl radical production in deltamdh knockout Escherichia coli at 5 to 15 ug/ml after 1 hr by flow cytometry analysis. It is filed as functional, organism-based.
Assay [39] concerns Escherichia coli. Briefly: Induction of hydroxyl radical production in Escherichia coli at 5 to 15 ug/mL after 1 hr by measuring increase in hydroxyphenyl fluorescein emission by flow cytometry analysis. The assay is classed as functional, organism-based.
Assay [40] deals with Escherichia coli. Briefly: Induction of hydroxyl radical production in Escherichia coli at 5 to 15 ug/mL after 2 hrs by measuring increase in hydroxyphenyl fluorescein emission by flow cytometry analysis. It is filed as functional, organism-based.
Assay [41] concerns Escherichia coli. Briefly: Induction of hydroxyl radical production in Escherichia coli at 5 to 15 ug/mL after 1 hr by measuring increase in hydroxyphenyl fluorescein emission by flow cytometry analysis in presence of thiourea. The assay is classed as functional, organism-based.

Converted amounts (≈) assume the structure as drawn. The source made the active and inactive calls. The calls are words filed in the database; no cut-off is given here. Where a SMILES comes first, the peptide text is derived from it. Side-chain parts run from the residue outwards. [ ]: non-standard residue; d: D form. The star is where a group is joined. Lys(α,ε-(ArgTrp)2) = N=C(N)NCCC[C@H](N)C(=O)N[C@@H](Cc1c[nH]c2ccccc12)C(=O)NCCCC[C@H](NC(=O)[C@H](Cc1c[nH]c2ccccc12)NC(=O)[C@@H](N)CCCNC(=N)N)C(=O)*; βAla = NCCC(=O)O

`N=C(N)NCCC[C@H](N)C(=O)N[C@@H](Cc1c[nH]c2ccccc12)C(=O)NCCCC[C@H](NC(=O)[C@H](Cc1c[nH]c2ccccc12)NC(=O)[C@@H](N)CCCNC(=N)N)C(=O)NCCCC[C@H](NC(=O)[C@H](CCCCNC(=O)[C@H](Cc1c[nH]c2ccccc12)NC(=O)[C@@H](N)CCCNC(=N)N)NC(=O)[C@H](Cc1c[nH]c2ccccc12)NC(=O)[C@@H](N)CCCNC(=N)N)C(=O)NCCC(N)=O` (H-RWK([Trp-Arg])K(Lys(α,ε-(ArgTrp)2))[βAla]-NH2): the outcome in assay [1], in [2], in [7], in assay [10] and in assay [15] was inactive. In addition, the IC50 in assay [3] turned out to be 9.9 µg/mL (≈ 5.37 µM); in [6], 9.4 µg/mL (≈ 5.1 µM); in assay [8], 6.5 µg/mL (≈ 3.53 µM); in [11], 9.7 µg/mL (≈ 5.27 µM); in assay [13], 7.8 µg/mL (≈ 4.23 µM); in assay [14] it was 8.3 µg/mL (≈ 4.51 µM). In addition, the “Ratio IC50” value in assay [4], in assay [9] and in [17] was 1.5 throughout. The outcome in assay [5], in [12] and in assay [16] was Active.

Turning to `CCn1cc(C(=O)O)c(=O)c2cc(F)c(N3CCNCC3)cc21`, the result in assay [18], in assay [20], in [22], in [23] and in assay [24] was inactive. Moreover, the result in [19], in [21] and in [25] was Active.

Consider `NC[C@H]1O[C@H](O[C@H]2[C@H](O)[C@@H](O[C@H]3O[C@H](CO)[C@@H](O)[C@H](N)[C@H]3O)[C@H](N)C[C@@H]2N)[C@H](O)[C@@H](O)[C@@H]1O`, for which the result in assay [26], in assay [27] and in assay [29] was Active. Also, the outcome in assay [28], in [30], in assay [31], in assay [32] and in [33] was inactive.

As to `CC1(C)S[C@@H]2[C@H](NC(=O)[C@H](N)c3ccccc3)C(=O)N2[C@H]1C(=O)O`, the result in assay [34], in [35], in assay [36], in assay [38] and in assay [41] was inactive. In addition, the outcome in assay [37], in assay [39] and in [40] was Active.
